According to patent US9249145B2, “Heterocyclic derivatives of pyrazol-4-yl-pyrrolo[2,3-d]pyrimidines as janus kinase inhibitors” (Incyte Holdings Corporation, priority 2009, dated 2016):
Counter-ions that a name gives are not always drawn. Like-named read-outs stand apart in the source and are kept apart here.

Assays:
[1] = target: T1, human JAK1 (a.a. 837-1142) (Homo sapiens, UniProt P23458); assay: In vitro JAK kinase assay (HTRF, phosphorylation of biotinylated peptide), JAK1; assay type: biochemical
T1 construct: The catalytic domains of human JAK1 (a.a. 837-1142); His tag (N); made in house; host or cells: insect cells (baculovirus)
How it was run: (§1)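 IC50 from HTRF detection (Eu-Py20 antibody, SA-APC, 40 min) after EDTA quench. Reactions ran 1 h at room temperature with 500 nM biotinylated peptide in Tris pH 7.8 buffer with NaCl, DTT, BSA; ATP 90 μM for JAK1, 30 μM for JAK2 (Km), or 1 mM. Enzymes: His-tagged catalytic domains from insect cells.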

Jak2 (a.a. 828-1132) = target: T2, Jak2 (a.a. 828-1132) (Homo sapiens, UniProt O60674); assay: In vitro JAK kinase assay (HTRF, phosphorylation of biotinylated peptide), JAK2; assay type: biochemical
T2 construct: Jak2 (a.a. 828-1132); His tag (N); made in house; host or cells: insect cells (baculovirus)
How it was run: as §1

[2] = 1 mM ATP, Examples 92-162, read-out: JAK1 IC50 (nM) @ 1 mM ATP
[3] = 1 mM ATP, Examples 92-162, read-out: JAK2 IC50 (nM) @ 1 mM ATP
[4] = 1 mM ATP, Examples 12-91, read-out: JAK1 IC50 (nM) @ 1 mM ATP
[5] = 1 mM ATP, Examples 12-91, read-out: JAK2 IC50 (nM) @ 1 mM ATP
[6] = Km ATP (90 μM for Jak1), Examples 1-11, read-out: IC50 (nM) @ Km ATP JAK1
[7] = 1 mM ATP, Examples 1-11, read-out: IC50 (nM) @ 1 mM ATP JAK2
[8] = Km ATP (30 μM for Jak2), Examples 1-11, read-out: IC50 (nM) @ Km ATP JAK2

T1 sequence (P23458 849-1154): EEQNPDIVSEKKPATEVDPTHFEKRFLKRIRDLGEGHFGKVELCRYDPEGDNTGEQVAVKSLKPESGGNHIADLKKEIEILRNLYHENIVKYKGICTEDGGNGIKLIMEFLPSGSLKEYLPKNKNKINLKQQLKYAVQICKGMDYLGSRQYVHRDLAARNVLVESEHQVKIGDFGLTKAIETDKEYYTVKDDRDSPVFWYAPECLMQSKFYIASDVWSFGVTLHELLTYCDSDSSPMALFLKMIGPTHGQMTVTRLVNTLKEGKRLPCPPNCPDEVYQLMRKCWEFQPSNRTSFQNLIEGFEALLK
T2 sequence (O60674 828-1132): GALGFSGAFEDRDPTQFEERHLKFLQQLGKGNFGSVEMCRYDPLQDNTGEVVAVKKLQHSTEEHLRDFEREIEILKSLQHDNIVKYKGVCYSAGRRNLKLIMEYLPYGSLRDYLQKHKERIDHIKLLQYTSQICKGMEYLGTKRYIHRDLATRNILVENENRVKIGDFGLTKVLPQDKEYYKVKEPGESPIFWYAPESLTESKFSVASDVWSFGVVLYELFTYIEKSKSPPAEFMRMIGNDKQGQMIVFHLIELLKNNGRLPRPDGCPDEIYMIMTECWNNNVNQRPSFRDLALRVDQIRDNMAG

IC50 [1, 2] [nM]	IC50 (Jak2 (a.a. 828-1132); [3]) [nM]	IC50 [1, 4] [nM]	IC50 (Jak2 (a.a. 828-1132); [5]) [nM]	SMILES	other results
< 20	> 100	–	–	N#CCC(CN1CCN(C(=O)c2ccc(C#N)cc2F)CC1CF)n1cc(-c2ncnc3[nH]ccc23)cn1 (single isomer, unassigned) [Example 158, 4-[(4-{3-cyano-2-[4-(7H-pyrrolo[2,3-d]pyrimidin-4-yl)-1H-pyrazol-1-yl]propyl}-3-fluoromethylpiperazin-1-yl)carbonyl]-3-fluorobenzonitrile]	–
–	–	< 10	< 10	Cc1ccc(C(=O)N2CCN(CC(CC#N)n3cc(-c4ncnc5[nH]ccc45)cn3)CC2)c(F)c1 (stereo not drawn) [Example 28, 3-(4-(7H-pyrrolo[2,3-d]pyrimidin-4-yl)-1H-pyrazol-1-yl)-4-(4-(2-fluoro-4-methylbenzoyl)piperazin-1-yl)butanenitrile]	–
–	–	10 to 50	50 to 100	N#CCC(CN1CCN(C(=O)Nc2ccccc2OC(F)F)CC1)n1cc(-c2ncnc3[nH]ccc23)cn1 (stereo not drawn) [Example 74, 4-(2-(4-(7H-pyrrolo[2,3-d]pyrimidin-4-yl)-1H-pyrazol-1-yl)-3-cyanopropyl)-N-(2-(difluoromethoxy)phenyl)piperazine-1-carboxamide]	–
< 20	50 to 100	–	–	CCC(CN1CCN(S(=O)(=O)c2ccccc2C(F)(F)F)CC1)n1cc(-c2ncnc3[nH]ccc23)cn1 (stereo not drawn) [Example 130, 4-(1-(1-(4-(2-(trifluoromethyl)phenylsulfonyl)piperazin-1-yl)butan-2-yl)-1H-pyrazol-4-yl)-7H-pyrrolo[2,3-d]pyrimidine]	–
–	–	10 to 50	> 100	N#CCC(CN1CCN(C(=O)c2ncc(C(F)(F)F)cc2F)CC1)n1ccc(-c2ncnc3[nH]ccc23)c1 (stereo not drawn) [Example 89, 3-(3-(7H-pyrrolo[2,3-d]pyrimidin-4-yl)-1H-pyrrol-1-yl)-4-(4-(3-fluoro-5-(trifluoromethyl)picolinoyl)piperazin-1-yl)butanenitrile]	–
–	–	–	–	N#CCC(CN1CCN(C(=O)c2cc(F)cc(F)c2)CC1)n1cc(-c2ncnc3[nH]ccc23)cn1 (stereo not drawn) [Example 3, 4-[4-(3,5-difluorobenzoyl)piperazin-1-yl]-3-[4-(7H-pyrrolo[2,3-d]pyrimidin-4-yl)-1H-pyrazol-1-yl]butanenitrile]	IC50 ([1]; 1 mM ATP, Examples 1-11, read-out: IC50 (nM) @ 1 mM ATP JAK1): 10 to 20 nM; IC50 [1, 6]: < 10 nM; IC50 (Jak2 (a.a. 828-1132); [7]): < 10 nM; IC50 (Jak2 (a.a. 828-1132); [8]): < 10 nM
–	–	< 10	10 to 50	N#CCC(CN1CCN(C(=O)c2ccc(Cl)cn2)CC1)n1cc(-c2ncnc3[nH]ccc23)cn1 (stereo not drawn) [Example 38, 3-(4-(7H-pyrrolo[2,3-d]pyrimidin-4-yl)-1H-pyrazol-1-yl)-4-(4-(5-chloropicolinoyl)piperazin-1-yl)butanenitrile]	–
–	–	< 10	50 to 100	N#CCC(CN1CCN(C(=O)c2ccc(C#N)cc2F)CC1)n1cc(-c2ncnc3[nH]ccc23)cn1 (single isomer, unassigned) [Example 12, 4-[(4-{3-cyano-2-[4-(7H-pyrrolo[2,3-d]pyrimidin-4-yl)-1H-pyrazol-1-yl]propyl}piperazin-1-yl)carbonyl]-3-fluorobenzonitrile trifluoroacetate Salt]	–
–	–	10 to 50	> 100	N#CCC(CN1CCN(C(=O)c2ccc(F)cc2C(F)(F)F)CC1)n1cc(-c2ncnc3[nH]ccc23)cn1 (stereo not drawn) [Example 59]	–
–	–	10 to 50	> 100	N#CCC(CN1CCN(C(=O)c2ncc(C(F)(F)F)cc2F)CC1)n1cc(-c2ncnc3[nH]ccc23)cn1 (stereo not drawn) [Example 19, 4-(4-{[3-fluoro-5-(trifluoromethyl)pyridin-2-yl]carbonyl}piperazin-1-yl)-3-[4-(7H-pyrrolo[2,3-d]pyrimidin-4-yl)-1H-pyrazol-1-yl]butanenitrile]	–
–	–	10 to 50	50 to 100	N#CCC(CN1CCN(C(=O)Nc2ccc(F)cc2F)CC1)n1cc(-c2ncnc3[nH]ccc23)cn1 (stereo not drawn) [Example 72, 4-(2-(4-(7H-pyrrolo[2,3-d]pyrimidin-4-yl)-1H-pyrazol-1-yl)-3-cyanopropyl)-N-(2,4-difluorophenyl)piperazine-1-carboxamide]	–
20 to 50	> 100	–	–	CC(CN1CCN(S(=O)(=O)c2ccccc2C#N)CC1)n1cc(-c2ncnc3[nH]ccc23)cn1 (stereo not drawn) [Example 94, 2-[(4-{2-[4-(7H-pyrrolo[2,3-d]pyrimidin-4-yl)-1H-pyrazol-1-yl]propyl}piperazin-1-yl)sulfonyl]benzonitrile]	–
–	–	10 to 50	> 100	N#CCC(CN1CCN(C(=O)c2ccc(C#N)cc2)CC1)n1ccc(-c2ncnc3[nH]ccc23)c1 (stereo not drawn) [Example 88, 4-(4-(2-(3-(7H-pyrrolo[2,3-d]pyrimidin-4-yl)-1H-pyrrol-1-yl)-3-cyanopropyl)piperazine-1-carbonyl)benzonitrile]	–
< 20	< 20	–	–	CCC(CN1CCN(C(=O)c2ccc(O)cc2F)CC1)n1cc(-c2ncnc3[nH]ccc23)cn1 (stereo not drawn) [Example 123, (4-(2-(4-(7H-pyrrolo[2,3-d]pyrimidin-4-yl)-1H-pyrazol-1-yl)butyl)piperazin-1-yl)(2-fluoro-4-hydroxyphenyl)methanone]	–
–	–	–	–	N#CCC(CC1CCN(S(=O)(=O)C2CC2)CC1)n1cc(-c2ncnc3[nH]ccc23)cn1 (stereo not drawn) [Example 5, 4-[1-(cyclopropylsulfonyl)piperidin-4-yl]-3-[4-(7H-pyrrolo[2,3-d]pyrimidin-4-yl)-1H-pyrazol-1-yl]butanenitrile]	IC50 [1, 6]: < 10 nM; IC50 (Jak2 (a.a. 828-1132); [7]): < 10 nM; IC50 (Jak2 (a.a. 828-1132); [8]): < 10 nM
< 20	> 100	–	–	Cc1c(Nc2ccc(F)cc2F)ncnc1N1CCC(C(CC#N)n2cc(-c3ncnc4[nH]ccc34)cn2)CC1 (stereo not drawn) [Example 155, 3-(4-(7H-pyrrolo[2,3-d]pyrimidin-4-yl)-1H-pyrazol-1-yl)-3-(1-(6-(2,4-difluorophenylamino)-5-methylpyrimidin-4-yl)piperidin-4-yl)propanenitrile]	–
–	–	10 to 50	10 to 50	N#CCC(CN1CCN(C(=O)c2ncc(Cl)cc2F)CC1)n1ccc(-c2ncnc3[nH]ccc23)c1 (stereo not drawn) [Example 84, 3-(3-(7H-pyrrolo[2,3-d]pyrimidin-4-yl)-1H-pyrrol-1-yl)-4-(4-(5-chloro-3-fluoropicolinoyl)piperazin-1-yl)butanenitrile]	–
–	–	< 10	10 to 50	N#CCC(CN1CCN(C(=O)c2ccc(C(F)F)cc2F)CC1)n1ccc(-c2ncnc3[nH]ccc23)c1 (stereo not drawn) [Example 91, 3-(3-(7H-pyrrolo[2,3-d]pyrimidin-4-yl)-1H-pyrrol-1-yl)-4-(4-(4-(difluoromethyl)-2-fluorobenzoyl)piperazin-1-yl)butanenitrile]	–
< 20	< 20	–	–	Cc1c(Nc2ccc(F)c(F)c2)ncnc1N1CCC(C(CC#N)n2cc(-c3ncnc4[nH]ccc34)cn2)CC1 (stereo not drawn) [Example 150, 3-(4-(7H-pyrrolo[2,3-d]pyrimidin-4-yl)-1H-pyrazol-1-yl)-3-(1-(6-(3,4-difluorophenylamino)-5-methylpyrimidin-4-yl)piperidin-4-yl)propanenitrile]	–
< 20	50 to 100	–	–	Cc1c(Nc2cccc(F)c2)ncnc1N1CCC(C(CC#N)n2cc(-c3ncnc4[nH]ccc34)cn2)CC1 (stereo not drawn) [Example 148, 3-(4-(7H-pyrrolo[2,3-d]pyrimidin-4-yl)-1H-pyrazol-1-yl)-3-(1-(6-(3-fluorophenylamino)-5-methylpyrimidin-4-yl)piperidin-4-yl)propanenitrile]	–
–	–	< 10	> 100	C[C@@H]1CN(C(=O)c2ccc(C#N)cc2F)CCN1CC(CC#N)n1cc(-c2ncnc3[nH]ccc23)cn1 (single isomer, unassigned) [24, R-1]	–
